Laboratory results reported in publication PMC7497249, “Synthesis and Biological Screening of New Lawson Derivatives as Selective Substrate‐Based Inhibitors of Cytochrome bo3 Ubiquinol Oxidase from Escherichia coli” (Chemmedchem, 2020).
“And” between values parts separate entries of the source, which are not always exact repeats. Equal entries are not always repeated. Where two headings read alike, the source gives them in different places.

Experiments:
cyt bo3 = molecular target: T1, cyt bo3 (Escherichia coli, UniProt P0ABI8); conditions: steady state kinetic experiments; read-out: kiapp; cited from earlier work
T1 construct: made in house; host or cells: E. coli strain GO195 with plasmid pIRHisA

[1] = molecular target: T2, purified E. coli cyt bd-I oxidase (Escherichia coli, UniProt P0ABJ9); assay: biochemical; conditions: for remaining activity at 250 µM: read-out: Residual activity for oxygen reduction, Cytochrome bd-I
T2 construct: made in house; host or cells: E. coli C43(DE3) Δbo3 with plasmid pet17b-cydABX-StrepII
Method: (§1) The inhibitory effect of a set of HNQs was screened in micromolar range to identify selective cyt bo3 and cyt bd‐I inhibitors. Oxygen reduction was measured via a Clark‐type electrode. Turnover rates of cyt bo3 and bd‐I experiments are presented as relative activities (Figure 1). For experimental overview and further information see Supporting Information (Figures S38–S40), Tables S2–3). Activity of cyt bo 3 was strongly (>50 %) reduced by HNQ‐1, ‐2, ‐6, ‐7 and ‐12. […]. Overall, the E. coli bd‐I‐type oxidase was less sensitive to the majority of examined compounds. […]; HNQ‐12: 56 %).
(§2) Figure 1 Screening of the inhibition potentials of tested hydroxynaphthoquinones (HNQ) on the oxidase reduction activity of purified E. coli cytbo3 (white) and bd‐I (light gray) oxidase. Inhibition assay using HNQs at 250 μM in the presence of 200 μM ubiquinone‐1 and 5 mM dithiothreitol. Oxygen reduction activity was calculated from oxygen consumption rates at 30 nM enzyme concentration at RT for each experiment. 100 % activity=adding corresponding volume of EtOH. KCN (20 μM) and HQNO (250 μM) represent positive inhibition controls for cyt bo3. The data are mean values of three independent experiments ± standard deviation.
(§3) Oxygen reductase activity measurements: Oxygen reductase activity was measured as oxygen consumption rate of purified protein by an OX‐MR Clark‐type oxygen electrode linked to a PA 2000 picoammeter and to an ADC‐216 for analog to digital conversion. Recording of data with SensorTrace Basic 2.1 software (all Unisense, Denmark).
(§4) Measurements were performed at room temperature in stirred 2 mL – glass vials with a total reaction volume of 600 μL. Oxygen consumption was initiated by adding 30 nM of the respective enzyme to the equilibrated mixture containing 20 mM NaPi (pH 8.0), 50 mM NaCl, 0.02 % DDM, 5 mM dithiothreitol (DTT) and 200 μM Ubiquinone‐1 (2,3‐dimethoxy‐5‐methyl‐6‐(3‐methylbut‐2‐en‐1‐yl)‐1,4‐benzoquinone). Equilibration was done for 10 min prior to enzyme addition. Inhibition experiments with 250 μM of respective HNQ from 20 mM stock solution in EtOH before equilibration. Data analysis and visualization with Origin Lab Pro 9.5 (Additive GmbH, Germany). HQNO (2‐heptyl‐4‐quinolinol 1‐oxide) was purchased from biomol GmbH, Hamburg. Determination of apparent k i (k i ^app) was performed under the same conditions but with a range of inhibitor concentrations from 1000 μM to 0.2 μM. The k i ^app value was adopted as the EC50 from the sigmoidal DoseResp Fit. Further information can be found in Figures S40–S43.

[2] = molecular target: T3, purified E. coli cyt bo3 oxidase (Escherichia coli, UniProt P0ABI8); assay: biochemical; conditions: for remaining activity at 250 µM: read-out: Residual activity for oxygen reduction, Cytochrome bo3; for inhibition at 250 µM: read-out: inhibition (reduction) of cyt bo3 activity
T3 construct: made in house; host or cells: E. coli strain GO195 with plasmid pIRHisA
Method: as §1, §2, §3, §4

[3] = absorbance-based thermodynamic equilibrium solubility assay; format: physicochemical; conditions: buffer 20 mM NaPi, 50 mM NaCl, 0.02 % DDM, pH 8.0, room temperature; for solubility at 1 day: sodium phosphate buffer
Method: To meet the requirements for further functional investigations, the solubilities of the HNQ compounds were determined by an absorbance‐based thermodynamic equilibrium solubility assay.36 As shown in Scheme 3a, plotting absorbance over concentration at the wavelength of the maximum peak of the absorbance spectra, (HNQ‐2 at λ=274 nm), provides a saturation point at 1.26±0.03 mM (solubility graphs for all HNQ compounds are shown in Figure S37). […]. Therefore, all twelve HNQ compounds are feasible for further functional studies.
Solubility assay: Thermodynamic equilibrium solubility of HNQ compounds was determined in sodium phosphate buffer containing 20 mM NaPi, 50 mM NaCl, 0.02 % DDM at pH 8.0. All steps were performed at room temperature following the method by Bharate and Vishwakarma.36 Measurements were done in triplicates. HNQ compounds were dissolved in a particular amount of methanol or CH2Cl2 (HNQ‐9) needed for complete dissolving. Required volumes of these methanol stock solutions were transferred in 1.5 mL reaction tubes (0.1–600 μL dependent on compound and stock concentration) to get a concentration row. After 24–48 h complete evaporation of methanol or CH2Cl2 was accomplished. Remaining solid compounds were dissolved by adding 100/200 μL of sodium phosphate buffer to the reaction tubes, which were shaken at 200 rpm for one day for equilibration. Next day, centrifugation of the reaction tubes for 30 min at 13 000 rpm at 11000 g. 50/100 μL of supernatant were pipetted into a 96‐well plate (UV‐Star, Greiner), and absorbance spectra were recorded for each well with a TECAN Spark plate reader (Tecan Trading AG, Switzerland). By plotting absorbance at λ max against concentration [mM] of the compound, saturation point of graph indicates the thermodynamic equilibrium solubility. Data analysis and visualization with SigmaPlot Pro 12.5 (Systat Software GmbH, Germany).

[4] = inhibitor 250 µM, 200 μM ubiquinone-1, 5 mM DTT, 30 nM enzyme, RT, mean of three ± SD, 100 % = EtOH
[5] = aqueous with cosolvent or surfactant or cyclodextrin, thermodynamic from solid
[6] = HNQ 250 μM, 200 μM ubiquinone-1
[7] = inhibitor 250 µM, 200 μM ubiquinone-1, 5 mM DTT, 30 nM enzyme, RT, mean of three ± SD, 100 % = EtOH, listed as HNQ-4

T2 sequence (P56100 whole entry): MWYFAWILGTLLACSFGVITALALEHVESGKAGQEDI
T2 sequence (P0ABJ9 whole entry): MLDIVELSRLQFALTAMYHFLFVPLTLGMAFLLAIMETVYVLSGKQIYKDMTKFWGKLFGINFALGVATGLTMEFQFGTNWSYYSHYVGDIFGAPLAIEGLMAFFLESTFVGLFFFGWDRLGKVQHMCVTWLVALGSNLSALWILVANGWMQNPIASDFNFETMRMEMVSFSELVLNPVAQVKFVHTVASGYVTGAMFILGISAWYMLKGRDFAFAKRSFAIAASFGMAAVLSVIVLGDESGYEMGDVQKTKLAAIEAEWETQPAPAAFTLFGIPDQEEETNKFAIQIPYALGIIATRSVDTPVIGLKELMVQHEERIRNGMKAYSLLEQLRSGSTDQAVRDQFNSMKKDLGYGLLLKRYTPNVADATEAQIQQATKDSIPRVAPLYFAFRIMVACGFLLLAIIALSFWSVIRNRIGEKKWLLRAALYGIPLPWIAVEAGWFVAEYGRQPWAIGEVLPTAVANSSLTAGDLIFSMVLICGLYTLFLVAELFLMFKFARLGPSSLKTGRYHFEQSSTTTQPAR
T2 sequence (P0ABK2 whole entry, further chain): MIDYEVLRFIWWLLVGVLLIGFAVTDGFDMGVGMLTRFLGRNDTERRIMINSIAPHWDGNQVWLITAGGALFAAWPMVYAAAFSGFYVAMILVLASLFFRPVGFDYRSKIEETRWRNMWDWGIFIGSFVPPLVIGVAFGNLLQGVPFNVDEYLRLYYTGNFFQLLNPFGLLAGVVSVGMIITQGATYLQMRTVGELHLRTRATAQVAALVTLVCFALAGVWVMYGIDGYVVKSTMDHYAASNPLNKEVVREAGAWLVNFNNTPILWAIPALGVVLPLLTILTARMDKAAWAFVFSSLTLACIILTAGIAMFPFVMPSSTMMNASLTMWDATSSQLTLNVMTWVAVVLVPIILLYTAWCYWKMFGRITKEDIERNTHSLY
T3 sequence (P0ABJ1 25-315): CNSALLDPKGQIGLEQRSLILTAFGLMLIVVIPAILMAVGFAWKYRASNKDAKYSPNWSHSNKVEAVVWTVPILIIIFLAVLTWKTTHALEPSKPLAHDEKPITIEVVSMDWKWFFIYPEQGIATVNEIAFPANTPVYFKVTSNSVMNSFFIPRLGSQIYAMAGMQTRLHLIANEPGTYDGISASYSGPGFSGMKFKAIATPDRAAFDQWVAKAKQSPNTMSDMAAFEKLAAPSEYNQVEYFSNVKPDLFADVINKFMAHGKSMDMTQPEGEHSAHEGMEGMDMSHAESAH
T3 sequence (P0ABJ3 whole entry, further chain): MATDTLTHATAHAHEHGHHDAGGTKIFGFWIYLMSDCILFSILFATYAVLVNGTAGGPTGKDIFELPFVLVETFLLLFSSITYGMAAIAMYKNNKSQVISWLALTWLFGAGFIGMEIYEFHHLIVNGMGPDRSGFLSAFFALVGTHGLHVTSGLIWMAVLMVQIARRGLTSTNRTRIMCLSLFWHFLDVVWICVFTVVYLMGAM
T3 sequence (P0ABI8 whole entry): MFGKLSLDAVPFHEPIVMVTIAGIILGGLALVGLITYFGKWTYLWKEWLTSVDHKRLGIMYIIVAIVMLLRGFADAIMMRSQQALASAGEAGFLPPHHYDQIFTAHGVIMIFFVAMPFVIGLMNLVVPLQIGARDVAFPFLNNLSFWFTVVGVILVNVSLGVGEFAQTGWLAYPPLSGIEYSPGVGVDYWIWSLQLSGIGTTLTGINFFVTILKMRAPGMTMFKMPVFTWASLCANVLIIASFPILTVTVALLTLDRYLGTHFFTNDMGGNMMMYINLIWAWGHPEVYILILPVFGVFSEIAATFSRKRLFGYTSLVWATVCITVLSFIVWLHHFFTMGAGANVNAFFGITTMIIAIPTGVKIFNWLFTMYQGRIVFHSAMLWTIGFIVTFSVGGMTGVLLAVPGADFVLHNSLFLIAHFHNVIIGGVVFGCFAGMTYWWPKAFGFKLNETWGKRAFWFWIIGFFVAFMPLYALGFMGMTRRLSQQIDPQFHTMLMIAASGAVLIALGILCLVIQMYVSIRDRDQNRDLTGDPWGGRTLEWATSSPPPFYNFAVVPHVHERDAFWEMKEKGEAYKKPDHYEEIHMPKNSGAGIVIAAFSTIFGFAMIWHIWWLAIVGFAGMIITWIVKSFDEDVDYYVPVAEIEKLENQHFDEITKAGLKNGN
T3 sequence (P0ABJ6 whole entry, further chain): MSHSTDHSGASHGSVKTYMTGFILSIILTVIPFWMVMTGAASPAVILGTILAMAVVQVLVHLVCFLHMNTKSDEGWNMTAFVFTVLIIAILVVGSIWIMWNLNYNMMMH
T1 sequence (P0ABJ1 25-315): as the sequence (P0ABJ1 25-315) above
T1 sequence (P0ABI8 whole entry): as the sequence (P0ABI8 whole entry) above
T1 sequence (P0ABJ3 whole entry, further chain): as the sequence (P0ABJ3 whole entry, further chain) above
T1 sequence (P0ABJ6 whole entry, further chain): as the sequence (P0ABJ6 whole entry, further chain) above

| Compound | remaining activity at 250 µM [1, 4] | remaining activity at 250 µM [2, 4] | solubility at 1 day [3, 5] | inhibitory effect on cyt bd-I activity (in words) ([1]; HNQ 250 μM) | inhibitory effect on cyt bd-I oxidase [1, 6] | inhibitory effect on cyt bo3 activity (in words) ([2]; HNQ 250 μM) | inhibition at 250 µM [2, 6] | Residual activity for oxygen reduction, Cytochrome bo3 [2, 4] | further results |
| --- | --- | --- | --- | --- | --- | --- | --- | --- | --- |
| CCCCCCCc1cc(O)c2ccccc2[n+]1[O-] [HQNO, 2‐heptyl‐4‐quinolinol 1‐oxide, reference compound] | 9.05 ± 1% | 4.42 ± 6% |  |  |  |  |  |  | Ki (cyt bo3): 700 nM |
| O=C1C(O)=C(Cc2c[nH]c3ncccc23)C(=O)c2ccccc21 [HNQ‐8, 2‐Hydroxy‐3‐[(1H‐pyrrolo(2,3‐b)pyridine‐3‐yl)methyl]‐1,4‐naphthoquinone] | 106 ± 5% | 101 ± 5% | > 3140 µg/mL and > 10300 µM | could not show an influence | < 30% | could not show an influence |  |  |  |
| O=C1C(O)=C(Cc2ccccc2)C(=O)c2ccccc21 [HNQ‐2, 2‐Hydroxy‐3‐methylene‐(benzyl)‐1,4‐naphthoquinone] | 107 ± 6% | 21.8 ± 6% |  | not influencing |  | strong inhibitory effect | > 50% |  | Solubility ([3]; aqueous with cosolvent or surfactant or cyclodextrin, thermodynamic from solid, read-out: Solubility): 334 µg/mL and 1260 µM |
| O=C1C(O)=C(Cc2ccncc2)C(=O)c2ccccc21 [HNQ‐3, 2‐Hydroxy‐3‐methylen‐(4‐N‐pyridyl)‐1,4‐naphthoquinone] | 110 ± 12% | 99.5 ± 12% | 627 µg/mL and 2360 µM | activity remains unaffected | < 30% | activity remains unaffected | < 30% |  |  |
| 2‐Hydroxy‐3‐[(4‐phenoxybenzyl)methyl]‐1,4‐naphthoquinone [HNQ‐12] |  |  |  |  | 56% |  |  | 13.1 ± 7% | Solubility [3]: 1640±94 μg/mL and 4.6±0.3 mM; Residual activity for oxygen reduction, Cytochrome bd-I [1, 4]: 43.8 ± 7%; inhibition (reduction) of cyt bo3 activity [2, 6]: > 50% |
| COc1cc(CC2=C(O)C(=O)c3ccccc3C2=O)ccc1O [HNQ‐7, 2‐Hydroxy‐3‐[(4‐hydroxy‐3‐methoxyphenyl)methyl]‐1,4‐naphthoquinone] | 106 ± 7% | 49.5 ± 7% | > 2680 µg/mL and > 8300 µM |  |  |  | > 50% | < 50% |  |
| CN(C)c1ccc(CC2=C(O)C(=O)c3ccccc3C2=O)cc1 [HNQ‐4, 2‐Hydroxy‐3‐methylen‐(4‐N,N ‐dimethylanilid)‐1,4 naphthoquinone] |  |  | 267 µg/mL and 870 µM |  | < 30% |  | < 30% | 15% | Residual activity for oxygen reduction, Cytochrome bd-I [1, 4]: 15%; Residual activity for oxygen reduction, Cytochrome bd-I [1, 7]: 84.2 ± 11%; Residual activity for oxygen reduction, Cytochrome bo3 [2, 7]: 84.8 ± 11% |
| 2‐Hydroxy‐3‐[(ferreocenyl)methyl]‐1,4‐naphthoquinone [HNQ‐9] |  |  |  |  |  |  |  |  | Solubility [3]: >8.3 mM; Residual activity for oxygen reduction, Cytochrome bd-I [1]: 110 ± 17%; inhibitory effect on cyt bd-I oxidase [1]: < 30%; Residual activity for oxygen reduction, Cytochrome bo3 [2]: 84.4 ± 17%; inhibition (reduction) of cyt bo3 activity [2]: < 30% |
| O=C1C(O)=C(C(c2nc3ccccc3s2)N2CCC[C@H]2C(=O)O)C(=O)c2ccccc21 (stereo partly drawn) [HNQ‐11, 2‐Hydroxy‐3‐[(2‐thiazol(2‐3)benzyl)methyl)pyrrolidine‐2‐carboxylic acid‐1,4‐naphthoquinone] | 111 ± 13% | 115 ± 13% | 800 µg/mL and 1840 µM | could not show an influence | < 30% | could not show an influence | < 30% |  |  |
| O=C1C(O)=C(Cc2ccc3[nH]ncc3c2)C(=O)c2ccccc21 [HNQ‐5, 2‐Hydroxy‐3‐[(indazol‐5‐yl)methyl]‐1,4‐naphthoquinone] | 117 ± 7% | 59.9 ± 7% | 1670 µg/mL and 5500 µM |  |  |  | 40% |  |  |
| 2‐Hydroxy‐3‐[(3,5‐dihydroxybenzyl)methyl]‐1,4‐naphthoquinone [HNQ‐10] |  |  |  |  |  |  |  | 69.1 ± 8% | Solubility [3]: 840±151 μg/mL and 2.1±0.4 mM; Residual activity for oxygen reduction, Cytochrome bd-I [1, 4]: 107 ± 8%; inhibition (reduction) of cyt bo3 activity [2, 6]: 31% |
| CCCCCCCCCCCCCC1=C(O)C(=O)c2ccccc2C1=O [HNQ‐1, 2‐Hydroxy‐3‐tridecyl‐1,4‐naphthoquinone] | 70.2 ± 12% | 2.64 ± 12% | 335 µg/mL and 1020 µM |  | 30% |  | > 50% |  |  |
| O=C1C(O)=C(Cc2ccc3c(c2)OCO3)C(=O)c2ccccc21 [HNQ‐6, 2‐Hydroxy‐3‐[(1,2‐methylenedioxybenz‐5 yl)methyl]‐1,4‐naphthoquinone] | 109 ± 13% | 27.3 ± 13% | 400 µg/mL and 780 µM |  |  |  | > 50% | < 30% |  |
